# Measured values as given in US20150265669A1, “METHODS AND COMPOSITIONS FOR INHIBITING CANCER CELL GROWTH” (priority 2014, published 2015).
# Experiments:
# A549 cells (lung cancer) [1] = assay: Flow cytometric cell cycle phase distribution; format: cell-based, human; conditions: A549, IC50 concentration; for cell cycle arrest: 12-72 hours
# Experimental: The Wehi-3B (blood cancer) or A549 (lung cancer) cells (2×10^5 cells/mL) were treated with IC50 concentration of Morinda spp. leaves, or Clinacanthus spp. leaves with or without Zingiber extract and compared with erlotinib. After 12, 24, 48, and 72 hours of incubation, the cells were trypsinized, washed, fixed in 70% ethanol, stained with 1 mg/mL PI and analysed by flow cytometry (BD FACS Canto II, USA).
# For flow cytometry analysis fixation of cell population must be performed to keep the integrity and the cell pellets were fixed by adding of 500 μl of 70% chilled ethanol and kept at −20° c. for 5-7 days. Then, the cells were centrifuged at 1000 rpm for 10 minutes and the ethanol was removed. The cells were washed with washing solution containing PBS, EDTA, bovine serum albumin and sodium azide twice, and the pellet cells were resuspended to staining buffer containing 1 ml PBS and 3 μl PI (10 mg/ml) and 10 μl RNase A (50 mg/ml) for 30 minutes on ice dark place. RNase was added in order to permit PI to bind exactly to DNA. The DNA content of cells was analysed with a BD flow cytometer, and the data analysis was performed by using summit V4.3 software.
# A549 cells = assay: MTT cytotoxicity assay on A549 cells; format: cell-based; conditions: Homo sapiens, after 72 hours, read-out: IC50 concentrations
# Experimental: The cytoxicity properties of the extract were determined by using MTT assay. MTT dye is a water-soluble yellow dye that is decreased in viable cells to MTT-formazan (3-[4,5-dimethylthiazol-2-yl]-3,5-diphenylformazan) that is an insoluble purple colored product, by the succinate dehydrogenase mitochondrial enzyme. The cells were seeded in 96-well Microplates at a density of 2×10^5 cells/ml. After 24 hours incubation, the cells were treated with various concentrations of Morinda leaf, or Clinacanthus spp. Leaves and root extract ([…]) for 24, 48 and 72 h. After 72 hours of incubation, 20 μL of MTT solution (5 mg/ml in PBS) was added in each well and the plates incubated for 4 hours. Then, after removing the media the formazan crystals were dissolved with 100 μL DMSO. Finally the absorbance was determined at 570 and 630 nm in a microplate reader (ECAN, Sunrise™, Männedorf, Switzerland). Cell viability was calculated as the percentage of absorbent compared to control. The 50% inhibitory concentration (IC50) value, defined as the amount of Morinda citrifolia leaf, or Clinacanthus spp. Leaves and root extract that inhibits 50% of cell growth, was calculated from the concentration-response curves. All experiments were carried out in triplicate. Three independent experiments performed in triplicate were used for these calculations. […]
# A549 cells (lung cancer) [2] = assay: AO/PI double staining fluorescence microscopy; format: cell-based, human; conditions: 200x
# Experimental: AO/PI double staining was carried out to visualize any morphological changes in the cells upon treatment and also to semi-quantitated viable, apoptotic and necrotic cells, as shown in FIG. 3. […] After 24 hours treatment, blebbing of the cell membrane and dense green nucleus, which indicated nuclear chromatin condensation were noticeable (FIGS. 3(b) and 3(e)). Both early apoptosis features (blebbing and chromatin condensation) and late phases of apoptosis, which specify presence of intense reddish-orange colour due to acridine orange binding to denatured DNA, were observed more apparent at 48 hours of treatment (FIGS. 3(c) and 3(f)) and prominent at 72 hours (FIGS. 3(d) and 3(g)).
# A549 cells (lung cancer) [3] = assay: Morphological changes under normal phase contrast inverted microscope; format: cell-based, human; conditions: 400x
# Experimental: Wehi-3B (blood cancer) or A549 (lung cancer) cells at concentration of 1×10^6 cells/ml were cultured in RPMI 1640 (ATCC, USA) medium supplemented with 10% fetal bovin serum and were seeded into […] culture flask. […] The morphological changes of the cells were observed under normal inverted microscope. Untreated cells were used as negative control. Some morphological appearances such as plasma membrane blebbing, rounding up the cells, cell detachment, cell shrinkage and formation of vacuole in the cell were observed.
# Similarly Human lung fibroblast (MRC5), human lung adenocarcinoma (A549) cell lines, Essential Modified Eagle's Medium (EMEM) and Kaighn's Modification of Ham's F-12 (F-12K) medium were obtained from American Type Culture Collection (ATCC). MRC5 and A549 cells were cultured in EMEM and F-12K medium, respectively. Both media supplemented with 10% fetal bovine serum (FBS) and 1% of 100 μg/mL penicillin and streptomycin. Cells were grown in a humidified incubator at 37° C. with 5% CO2.
# tumor tissues = assay: Mouse apoptosis RT-PCR-Array on tumor tissues; format: in vivo, mice
# Experimental: (§1) Male BALB/C mice (6 weeks old, weighing 19-20 g) were purchased from Faculty of Veterinary Medicine, University Putra Malaysia. Mice were housed in laminar air-flow cabinets under pathogen-free conditions with a 12-h light/12-h dark schedule and fed with autoclaved standard chow and water ad libitum. A549 cells (2×10^7) resuspended in 100 μL PBS were injected subcutaneously into the backs of mice. When tumor size reached approximately 100 mm^3, after 14 days of implantation, mice were randomly assigned to the following experimental groups and administered daily by oral gavage for 21 days: (a) saline; (b) erlotinib (50 mg/kg); (c) 150 mg/kg and (d) 300 mg/kg of Morinda spp. leaves, Clinacanthus spp. leaves. Mice were sacrificed via intraperitoneal injection of ketamine HCl (100 mg/kg) and xylazine (10 mg/kg). Tumor was collected. Some were kept in liquid nitrogen for gene expression, while others were fixed in 10% formalin and embedded in paraffin for hematoxylin and eosin (H&E) and immunohistochemical (IHC) examination. IHC kits (ChemMate™ DAKO EnVision™ Detection Kit, Peroxidase/DAB, Rabbit/Mouse) were purchased from Dako, Denmark. The primary antibody was anti-EGFR antibody ab15669 (Abeam; Cambridge, United Kingdom). This protocol was approved by the Animal Care and Use Committee of University Putra Malaysia (UPM/IACUC/AUP-R016/2013).
# RNA was isolated using Trizol (Invitrogen, Carlsbad, Calif.). Custom RT^2 Profiler PCR Array (CAPM11988), RT^2 SYBR Green qPCR Mastermix, RT^2 First Strand Kit and RNase-Free DNase Set were purchased from SuperArray Bioscience Corporation (Frederick, Md.). Quantitative RT-PCR array for differentially expressed genes of interest was performed utilizing RT^2 Profiler PCR Array Data Analysis version 3.5 (SABiosciences; Fredrick, Md., USA), which normalized to Hsp90ab1 (NM_008302) and Gapdh (NM_008084). RT-PCR data is represented as the average relative mRNA gene expression of each experimental group (n=3).
# A549 (lung cancer) = assay: Colourimetric assay of caspase 3, 8 and 9 in A549; format: cell-based, human; conditions: A549, treated vs untreated cells, 24-72 hours
# Experimental: The colorimetric assay of caspase 3 was performed using fluorometric and colorimetric assay kit (biotium kit). Wehi-3B (blood cancer) or A549 (lung cancer) cells at concentration of 1×10^6 cells/ml were cultured in RPMI 1640 (ATCC, USA) medium supplemented with 10% fetal bovin serum and were seeded into […] culture flask. […] Untreated cells acted as control. The cells were lysed with cold lysis buffer and incubated for 10 minutes on ice. Then, cell lysate was spun down at 10000 rpm for 5 minutes. The supernatant was transferred to new wells and 50 μl assay buffer was added to each samples. Then, 5 μl of enzyme substrate (caspase-3 and 8 substrate) was added to each sample and incubated at 37° c. for 30-60 minutes in a dark place. […]. The samples were read at 495 nm in a microplate reader. Finally, the results were shown as optical density (495 nm, mean SD).
# [4] = test system: A549 cells injected subcutaneously; assay: In vivo tumor xenograft model; set-up: species or system mice; conditions: erlotinib 50 mg/kg, daily oral gavage 21 days
# Experimental: as §1, with “The primary antibody was anti-EGFR antibody ab15669 (Abeam; Cambridge, United Kingdom). This protocol was approved by the Animal Care and Use Committee of University Putra Malaysia (UPM/IACUC/AUP-R016/2013).” left out
# Data was expressed as mean±standard deviation (mean±SD) of at least three independent experiments; significant differences (p<0.05) using one-way analysis of variance (ANOVA) and Duncan test using statistical analysis IBM SPSS Statistics 21 software.
# [5] = test system: Spleen tissue of leukaemic BALB/c mice; assay: TUNEL assay of spleen tissue; format: in vivo; conditions: Morinda at low and high doses
# [6] = Erlotinib 50 mg/kg, vs untreated
structure (smiles),measurement,setting,value
C#Cc1cccc(Nc2ncnc3cc(OCCOC)c(OCCOC)cc23)c1 [erlotinib],S and G2/M phase cells,A549 cells (lung cancer) [1],concomitant decrease
same,cell cycle arrest,A549 cells (lung cancer) [1],induced G0/G1 phase cell cycle arrested
same,cell cycle arrest,A549 cells (lung cancer) [1]; listed as erlotnib,induced G0/G1 arrest
same,IC50,A549 cells,2.83 µg/mL
same,AO/PI double-stained morphology,A549 cells (lung cancer) [2]; after 24 h,cells exhibit blebbing of the cell membrane and bright green nucleus showing condensation of chromatin
same,AO/PI double-stained morphology,A549 cells (lung cancer) [2]; after 48 h,late apoptosis features were seen
same,AO/PI double-stained morphology,A549 cells (lung cancer) [2]; after 72 hours,more late apoptosis
same,morphological changes of A549 cells,A549 cells (lung cancer) [3]; after 24 h,most of the cells exhibit normal morphology while some cells show cell shrinkage
same,morphological changes of A549 cells,A549 cells (lung cancer) [3]; after 48 h,clear apoptogenic morphology such as blebbing and cell shrinkage observed
same,morphological changes of A549 cells,A549 cells (lung cancer) [3]; after 72 h,"most of the cells were detached with obvious cell shrinkage, and blebbing of the cell membrane"
same,Fold Change Bcl2,tumor tissues; [6],−3.57 fold
same,Fold Change Birc5,tumor tissues; [6],−2.40 fold
same,Fold Change Jak2,tumor tissues; [6],−1.26 fold
same,Fold Change Stat3,tumor tissues; [6],1.06 fold
same,Fold Change Stat5a,tumor tissues; [6],1.42 fold
same,Fold Change Trp53,tumor tissues; [6],−1.10 fold
same,survivin and Bcl-2 expression,tumor tissues; erlotinib positive control,down-regulation
same,activity of caspase 9,A549 (lung cancer),remained unchanged
same,activity of caspase-3,A549 (lung cancer),significantly (P<0.05) increased
same,activity of caspase-8,A549 (lung cancer),significantly (P<0.05) increased
same,tumor size,[4],36.26±37.00 mm^3
CC1=C(/C=C/C(C)=C/C=C/C(C)=C/C(=O)O)C(C)(C)CCC1 [ATRA],apoptosis in spleen tissue (TUNEL),[5],significant (P<0.05) apoptosis
